Test results from patent US12662478B2, “ATF6 modulators and uses thereof” (Altos Labs, Inc., priority 2019, dated 2026).
Read-outs that look alike come from different tables or passages of the source.

Tests used:
ATF6 [1] = molecular target: T1, ATF6 (Homo sapiens, UniProt P18850); assay: ERSE ATF6-luciferase assay in presence of Tg-induced ER stress (U2-OS ATF6 TRE-luciferase reporter cells); assay type: cell-based; details: in presence of ER stress (thapsigargin), Tg only = 100%; for activity at 1 µM / activity at 10 µM: U2OS, 8 h; for activity at 1 µM / ATF6 activity @ 1 μM [%]: 1 μM test compound
T1 construct: endogenous in cells; host or cells: U2-OS (ATCC HTB-96) stably transduced with the Cignal Lenti ATF6 luc reporter (Qiagen #CLS-6031L)
T1 sequence (P18850 1-670): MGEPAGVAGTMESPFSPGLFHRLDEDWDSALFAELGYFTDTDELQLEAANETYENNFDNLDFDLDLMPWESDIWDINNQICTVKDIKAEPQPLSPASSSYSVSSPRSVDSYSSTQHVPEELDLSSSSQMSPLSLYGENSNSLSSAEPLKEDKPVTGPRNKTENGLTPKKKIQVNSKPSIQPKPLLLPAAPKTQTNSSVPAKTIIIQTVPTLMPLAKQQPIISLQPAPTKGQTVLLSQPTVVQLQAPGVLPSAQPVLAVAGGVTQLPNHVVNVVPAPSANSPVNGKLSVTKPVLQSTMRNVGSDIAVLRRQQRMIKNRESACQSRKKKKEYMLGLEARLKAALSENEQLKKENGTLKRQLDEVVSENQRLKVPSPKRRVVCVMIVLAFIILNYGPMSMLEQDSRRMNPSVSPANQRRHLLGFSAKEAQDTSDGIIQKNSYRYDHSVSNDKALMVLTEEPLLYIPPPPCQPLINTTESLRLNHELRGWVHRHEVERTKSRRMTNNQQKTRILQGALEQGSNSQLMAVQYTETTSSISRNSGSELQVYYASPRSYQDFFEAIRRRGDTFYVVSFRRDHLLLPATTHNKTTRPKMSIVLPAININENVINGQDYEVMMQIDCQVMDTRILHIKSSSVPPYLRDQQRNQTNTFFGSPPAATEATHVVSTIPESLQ
Protocol: (§1) To understand how exemplary compounds of the invention modulate the activity of ATF6 in absence or presence of endoplasmic reticulum (ER) stress, a Human bone osteosarcoma (U2-OS)-based TRE-luciferase reporter stable cell line was generated to determine the modulation of transcription of ATF6 target genes.
(§2) U2-OS cells were obtained from the American Type Culture Collection (ATCC HTB-96, ATCC Manassas, VA) and were cultured with growing medium containing Dulbecco's Modified Eagle's Medium (DMEM) (Cat. No.: SH30023.02, HyClone) supplemented with fetal bovine serum (FBS) 10% (Cat. No.: 16000044, Gibco) and 1% penicillin-streptomycin antibiotic cocktail (Cat. No.: SV30010, Hyclone).
(§3) Cignal Lenti ATF6 luc reporter (Qiagen #CLS-6031L) was used to produce a stable cell line in U2-OS cells (U2-OS ATF6 TRE-luciferase reporter). The lenti ATF6 reporter is a preparation of replication incompetent, VSV-g pseudotyped lentivirus particles expressing the firefly luciferase gene under the control of a minimal (m)CMV promoter and tandem repeats of the ATF6 transcriptional response element (TRE). The number of response elements as well as the intervening sequence between response elements has been experimentally optimized to maximize the signal to noise ratio.
(§4) Exemplary compounds of the invention and reference compounds were prepared from powder as 10 mM stock solutions in dimethyl sulfoxide (DMSO; Cat. No. #D2650, Sigma Aldrich) and stored at −80° C. in presence of N2 neutral atmosphere.
(§5) For the primary screening, 40,000 U2-OS ATF6 TRE-luciferase reporter cells were plated in poly-D-lysine (Cat. No.: P2636, Sigma) pre-coated white 96-well plates (Thermo Scientific Nunc #136101) with 100 μL of growing medium. Cells were incubated in humidified chambers for 24 hr.
For testing exemplary compounds in presence of ER-stress, cells were pre-treated for 30 min with 50 μL growing medium containing either vehicle (DMSO), 1 or 10 μM test compound. After this pre-incubation, 50 μL of a solution containing 0.2 μM of the ER stress-inducer thapsigargin (Tg) was added to the appropriate wells. The Tg solution also contains vehicle or test compounds at 1 or 10 μM as indicated. The final concentration of DMSO in each well was kept at 0.3%. Plates were incubated for 8 hr in humidified chambers.
After the 8 hr incubation, plates were cooled down to room temperature for 10 min prior to the luciferase assays. Luciferase reactions were performed using Luciferase Assay System (Cat. No.: E4550, Promega). Briefly, each well was washed with 100 μl of PBS 1× and, then, 20 μl of lysis reagent was added into each well. Plates were shaken for 10 min and, then, 50 μl of Luciferase Assay Reagent was added to each well. Luminescence was determined by integration of 1 s with a gain of 110 in a Synergy 4 Microplate reader. All measurements were carried out in triplicate.
The average activity determined from the wells containing vehicle only (DMSO, 0% of ATF6 activity) was used as blank and subtracted from the rest of measurements. The average activity determined from the wells containing Tg only was used as 100% of ATF6 activity. The percentage of modulation of exemplary compounds was calculated by normalizing values to potential maximal activation with Tg.
ATF6 activities of exemplary compounds at 1 and 10 μM in presence Tg-induced ER stress tested in the U2-OS ATF6 TRE-luciferase reporter cells were determined and are shown in Table 2-2 and Table 3-2.

ATF6 [2] = molecular target: T1, ATF6; assay: ERSE ATF6-luciferase assay in absence of ER stress (U2-OS ATF6 TRE-luciferase reporter cells); assay type: cell-based; details: normalized to maximal activation with Tg; for activation at 1 µM / activation at 10 µM: U2OS, 8 h; for activation at 10 µM / ATF6 activity @ 10 μM - No Tg [%]: 10 μM test compound
Protocol: as §1, §2, §3, §4, §5
For testing exemplary compounds in absence of ER-stress, cells were treated for 8 hr with 100 μL growing medium containing either vehicle (DMSO), 1 or 10 μM test compound or 0.1 μM Tg. The final concentration of DMSO in each well was kept at 0.3%. Plates were incubated in humidified chambers.
After 8 hr of incubation, plates were cooled down to room temperature for 10 min prior to luciferase assays. Luciferase reactions were performed as above. Luminescence was read by integration of 1 s with a gain of 110 in a Synergy 4 Microplate reader. All measurements were carried out in triplicate.
The average activity determined from the wells containing vehicle only (DMSO, 0% of ATF6 activity) was used as blank and subtracted from the rest of measurements. The percentage of modulation of exemplary compound was calculated by normalizing values to potential maximal activation with Tg.
ATF6 activities of exemplary compounds at 1 and 10 μM in absence of Tg-induced ER stress in the U2-OS ATF6 TRE-luciferase reporter cells were determined and are shown in Table 3-2, and Table 3-3.

[3] = 1 μM test compound, in absence of ER stress (no Tg), Table 3-3, read-out: ATF6 activity @ 1 μM-No Tg [%]
[4] = in absence of ER stress (no Tg), Table 3-3, read-out: ATF6 activity @ 10 μM - No Tg [%]
[5] = in absence of ER stress (no Tg), 8 hr, Table 3-3

Row | Compound | activity at 1 µM (ATF6 [1]; Table 2-3) [%] | activity at 10 µM (ATF6 [1]; 10 μM test compound, Table 2-3) [%] | activation at 1 µM (ATF6 [2]; [3]) [%] | activation at 10 µM (ATF6 [2]; [4]) [%] | ATF6 activity @ 1 μM [%] (ATF6 [1]; 8 hr, Table 2-3) | also measured
1 | CC(C1CCCC1)n1cc(NC(=O)c2cc(-c3ccco3)on2)cn1 (stereo not shown) [Compound 3-5, N-(1-(1-cyclopentylethyl)-1H-pyrazol-4-yl)-5-(furan-2-yl)isoxazole-3-carboxamide] | 125 to 150 | > 150 | 0 to 25 | 0 to 25 |  | 
2 | CC(C1CCCC1)n1cc(NC(=O)c2cc(-c3ccco3)on2)cn1 (single isomer, unassigned) [Compound 3-17, N-(1-(1-cyclopentylethyl)-1H-pyrazol-4-yl)-5-(furan-2-yl)isoxazole-3-carboxamide] |  | 125 to 150 | 0 to 25 | 0 to 25 | ++ (++ refers to 125% < % activity < 150% at 1 or 10 μM test compound) | 
3 | O=C(Nc1cnn(C2CCCC2)c1)c1cc(-c2ccco2)on1 [Compound 3-1, N-(1-cyclopentyl-1H-pyrazol-4-yl)-5-(furan-2-yl)isoxazole-3-carboxamide] | > 150 | > 150 | 0 to 25 | 0 to 25 |  | 
4 | O=C(Nc1cnn(C2CNC2)c1)c1cc(-c2ccco2)on1 [Compound 3-3, N-(1-(azetidin-3-yl)-1H-pyrazol-4-yl)-5-(furan-2-yl)isoxazole-3-carboxamide] | 125 to 150 |  | 0 to 25 |  |  | 
5 | CC(C1CCOC1)n1cc(NC(=O)c2cc(-c3ccco3)on2)cn1 (stereo not shown) [Compound 3-24, 5-(furan-2-yl)-N-(1-(1-(tetrahydrofuran-3-yl)ethyl)-1H-pyrazol-4-yl)isoxazole-3-carboxamide] |  | > 150 | 0 to 25 |  | + (+ refers to 100% < % activity < 125% at 1 or 10 μM) | ATF6 activity @ 10 μM - No Tg [%] (ATF6 [2]; [5]): ++ (++ refers to 25% < % activity < 50% at 1 or 10 μM test compound)
6 | CC(c1c(Cl)cccc1Cl)n1cc(C#Cc2nnc(-c3ccccn3)s2)cn1 (stereo not shown) [Compound 2-20, 2-((1-(1-(2,6-dichlorophenyl)ethyl)-1H-pyrazol-4-yl)ethynyl)-5-(pyridin-2-yl)-1,3,4-thiadiazole] |  |  |  |  |  | activity at 1 µM (ATF6 [1]; Table 2-2): 75 to 100%; activity at 10 µM (ATF6 [1]; 10 μM test compound, Table 2-2): 100 to 125%; activation at 1 µM (ATF6 [2]; 1 μM test compound, in absence of ER stress, Table 3-2, read-out: ATF6 activity @ 1 μM [%]): 0 to 25%; activation at 10 µM (ATF6 [2]; in absence of ER stress, Table 3-2, read-out: ATF6 activity @ 10 μM [%]): 0 to 25%
7 | O=C(Nc1cnn(C2CCNC2)c1)c1cc(-c2ccco2)on1 (stereo not shown) [Compound 3-4, 5-(furan-2-yl)-N-(1-(pyrrolidin-3-yl)-1H-pyrazol-4-yl)isoxazole-3-carboxamide] | 125 to 150 | > 150 | 0 to 25 | 0 to 25 |  | 
8 | O=C(Nc1cnn(C2CCOC2)c1)c1cc(-c2ccccn2)on1 (single isomer, unassigned) [Compound 3-20, 5-(pyridin-2-yl)-N-(1-(tetrahydrofuran-3-yl)-1H-pyrazol-4-yl)isoxazole-3-carboxamide] |  | > 150 | 0 to 25 |  | + (+ refers to 100% < % activity < 125% at 1 or 10 μM) | ATF6 activity @ 10 μM - No Tg [%] (ATF6 [2]; [5]): + (+ refers to 0% < % activity < 25% at 1 or 10 μM test compound)
9 | O=C(Nc1cnn(C2CCOC2)c1)c1cc(-c2cccs2)on1 (stereo not shown) [Compound 3-19, N-(1-(tetrahydrofuran-3-yl)-1H-pyrazol-4-yl)-5-(thiophen-2-yl)isoxazole-3-carboxamide] | > 150 | > 150 | 0 to 25 | 25 to 50 |  | 
10 | CC(C1CCCC1)n1cc(NC(=O)c2cc(-c3ccco3)on2)cn1 (single isomer, unassigned) [Compound 3-18, N-(1-(1-cyclopentylethyl)-1H-pyrazol-4-yl)-5-(furan-2-yl)isoxazole-3-carboxamide] |  |  |  |  | + (+ refers to 100% < % activity < 125% at 1 or 10 μM) | ATF6 activity @ 10 μM [%] (ATF6 [1]; 10 μM test compound, 8 hr, Table 2-3): ++ (++ refers to 125% < % activity < 150% at 1 or 10 μM test compound); ATF6 activity @ 1 μM-No Tg [%] (ATF6 [2]; 1 μM test compound, in absence of ER stress (no Tg), 8 hr, Table 3-3): + (+ refers to 0% < % activity < 25% at 1 or 10 μM test compound); ATF6 activity @ 10 μM - No Tg [%] (ATF6 [2]; [5]): + (+ refers to 0% < % activity < 25% at 1 or 10 μM test compound)
11 | CC(c1ccc(C(F)(F)F)cc1C(F)(F)F)n1cc(C#Cc2nnc(-c3cnccn3)s2)cn1 (stereo not shown) [Compound 2-10, 2-((1-(1-(2,4-bis(trifluoromethyl)phenyl)ethyl)-1H-pyrazol-4-yl)ethynyl)-5-(pyrazin-2-yl)-1,3,4-thiadiazole] |  |  |  |  |  | activity at 1 µM (ATF6 [1]; Table 2-2): 50 to 75%; activity at 10 µM (ATF6 [1]; 10 μM test compound, Table 2-2): 75 to 100%
